The target of this assay is T1, Renin (Homo sapiens, UniProt P00797).
T1 sequence (P00797 whole entry): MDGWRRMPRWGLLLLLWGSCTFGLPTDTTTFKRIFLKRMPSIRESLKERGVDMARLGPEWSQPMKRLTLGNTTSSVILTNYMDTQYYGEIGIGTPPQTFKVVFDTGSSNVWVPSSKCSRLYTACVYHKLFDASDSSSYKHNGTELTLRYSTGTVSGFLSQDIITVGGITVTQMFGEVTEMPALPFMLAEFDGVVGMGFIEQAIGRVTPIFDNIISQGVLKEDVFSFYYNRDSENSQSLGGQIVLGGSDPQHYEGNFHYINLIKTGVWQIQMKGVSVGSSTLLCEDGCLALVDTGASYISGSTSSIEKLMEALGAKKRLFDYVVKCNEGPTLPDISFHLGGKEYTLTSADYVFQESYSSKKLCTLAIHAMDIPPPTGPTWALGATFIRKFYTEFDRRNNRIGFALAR
The experiment in a line: Inhibition of human renin.
As usually defined, the IC50 is the concentration needed to halve the response being measured. Lower therefore signals greater potency. As to `CCCc1nc(-c2cccnc2)cn2c(C(Cc3cccnc3)C(=O)NC(CC3CCCCC3)C(O)CC(C(=O)NCCCCO)C(C)C)nnc12` (centres undefined), half-maximal inhibition (IC50) was put at 0.3 nM. The molecule `CCCCNC(=O)C(CC(O)C(CC1CCCCC1)NC(=O)Cc1nnc2c(CC(C)C)nc(-c3ccccc3)cn12)C(C)C` (centres undefined) yielded an IC50 of 30 nM. With `CCCc1nc(-c2cccnc2)cn2c(C(Cc3cccnc3)C(=O)NC(CC3CCCCC3)C(O)CC(C(=O)N3CCOCC3)C(C)C)nnc12` (centres undefined) the figure was 64 nM; with `CCCCNC(=O)[C@@H](CC(O)C(CC1CCCCC1)NC(=O)Cc1nnc2c(CCC)nc(-c3cccnc3)cn12)C(C)C` (some centres undefined), 26 nM. As for `CCCCN(C)C(=O)C(CC(O)C(CC1CCCCC1)NC(=O)C(Cc1cccnc1)c1nnc2c(CCC)nc(-c3cccnc3)cn12)C(C)C` (centres undefined), half-maximal inhibition (IC50) required 41 nM.

On to `CCCc1nc(-c2cccnc2)cn2c(C(Cc3cccnc3)C(=O)NC(CC3CCCCC3)C(O)CC(C(=O)NCCN3CCNCC3)C(C)C)nnc12` (centres undefined), for which the IC50 was found to be 0.6 nM. For the molecule `CCCCNC(=O)C(CC(O)C(CC1CCCCC1)NC(=O)C(Cc1cccnc1)c1nnc2c(CCC)nc(-c3cccnc3)cn12)C(C)C` (centres undefined), the half-inhibitory concentration (IC50) turned out to be 0.2 nM. For the molecule `CCCCNC(=O)C(CC(O)C(CC1CCCCC1)NC(=O)Cc1nnc2c(CCC)nc(-c3cccnc3)cn12)C(C)C` (centres undefined), inhibition was half-maximal at 2.7 nM (IC50). The same measure for `CCCc1nc(-c2cccnc2)cn2c(C(Cc3cccnc3)C(=O)NC(CC3CCCCC3)C(O)CC(C(=O)NCCN3CCOCC3)C(C)C)nnc12` (centres undefined): 0.4 nM; for `CCCc1nc(-c2cccnc2)cn2c(C(Cc3cccnc3)C(=O)NC(CC3CCCCC3)C(O)CC(C(=O)NCCN)C(C)C)nnc12` (centres undefined): 78 nM. Take `CCCc1nc(-c2cccnc2)cn2c(C(Cc3cccnc3)C(=O)NC(CC3CCCCC3)C(O)CC(C(=O)NCc3ccccn3)C(C)C)nnc12` (centres undefined): the concentration for half-maximal inhibition (IC50) stood at 0.6 nM. The molecule `CCCc1nc(-c2cccnc2)cn2c(C(Cc3cccnc3)C(=O)NC(CC3CCCCC3)C(O)CC(C(=O)N(C)CCN(C)C)C(C)C)nnc12` (centres undefined) returned an IC50 of 212 nM. Take `CCCc1nc(-c2cccnc2)cn2c(C(Cc3cccnc3)C(=O)NC(CC3CCCCC3)C(O)CC(C(=O)NCCN(C)C)C(C)C)nnc12` (single isomer, unassigned; less polar): the half-inhibitory concentration (IC50) came out at 8.6 nM. With `CCCc1nc(-c2cccnc2)cn2c(C(Cc3cccnc3)C(=O)NC(CC3CCCCC3)C(O)CC(C(=O)NCCN(C)C)C(C)C)nnc12` (stereo in doubt; e) the figure was 0.3 nM.
